Reference: patent US20050170359A1, “Treatment of vascular dysfunction and alzheimer's disease” (priority 2002, published 2005)
Entries after “also recorded” stand apart in the source; their conditions may differ. Peptide text beside a SMILES is read from it. * marks the point of attachment. Cbz = O=C(OCc1ccccc1)*; CH2F = FC*

Columns and labels:
SIPS BEC = test: Capillary morphogenesis in 3-D collagen gels by H2O2 stress-induced premature senescence (SIPS) BEC; assay type: cell-based, human
Procedure: The 3-D system has been described in detail by Davis et al. (J. Cell Sci. 114:917-930, 2001). Here, the system was used to assay the responsiveness of AD BEC and SIPS BEC to angiogenic stimulation. Briefly, 10^6 MBEC/ml were suspended within 3-D collagen matrices at 25 μl per well in the serum-free culture medium 199 containing VEGF (40 ng/ml) and bFGF (40 ng/ml) in 5% CO2 at 37° C. The cells were fixed with 3% glutaraldehyde in phosphate buffered saline. The sections were stained with hematoxylin/eosin and Hoechst 33342. The formation of intracellular vacuoles (stage I), tubules (stage II), and multicellular tubes and networks (stage III) were determined at 4 hr to 16 hr and 24 hr, respectively. The number of apoptotic cells were determined between 4 hr and 24 hr using double TUNEL/Hoechst staining. At least 200 cells were evaluated from an individual well. […] was quantified at 200 X magnification by counting four fields derived from triplicate wells. Subconfluent BEC cultures (34 days after subculture) were treated with H2O2 by adding it to the culture medium for 2 hr. To induce senescence, sublethal doses of H2O2 were determined and selected. […] H2O2-treated cells were subcultured and analyzed after 1, 2, 3, 4, 5, 6, 24, 48, 72, 96 and 120 hr for expression of different proteins involved in the cell cycle regulation and apoptosis. […]

BEC = test: H2O2 model of stress-induced premature senescence in young human BEC; assay type: cell-based
Procedure: Subconfluent BEC cultures (34 days after subculture) were treated with H2O2 by adding it to the culture medium for 2 hr. To induce senescence, sublethal doses of H2O2 were determined and selected. After treatment, cells were washed with PBS (37° C.) before harvesting, subculturing or incubating with a fresh medium or 3-D collagen gels. H2O2-treated cells were subcultured and analyzed after 1, 2, 3, 4, 5, 6, 24, 48, 72, 96 and 120 hr for expression of different proteins involved in the cell cycle regulation and apoptosis. Cells in 60 mm dishes were lysed in SDS sample buffer directly. For Western blot analysis, proteins were separated by SDS-PAGE and transferred to PVDF membrane followed by incubation with different primary antibodies (see antibodies for.Western blot analysis). SIPS BEC were also prepared for microarray analysis on U95A chips as described above.

AD BEC [1] = test: Apoptosis (TUNEL, caspase-3 positive cells) during AD BEC-mediated capillary morphogenesis; assay type: cell-based, human
Procedure: (§1) The 3-D system has been described in detail by Davis et al. (J. Cell Sci. 114:917-930, 2001). Here, the system was used to assay the responsiveness of AD BEC and SIPS BEC to angiogenic stimulation. Briefly, 10^6 MBEC/ml were suspended within 3-D collagen matrices at 25 μl per well in the serum-free culture medium 199 containing VEGF (40 ng/ml) and bFGF (40 ng/ml) in 5% CO2 at 37° C. The cells were fixed with 3% glutaraldehyde in phosphate buffered saline. The sections were stained with hematoxylin/eosin and Hoechst 33342. The formation of intracellular vacuoles (stage I), tubules (stage II), and multicellular tubes and networks (stage III) were determined at 4 hr to 16 hr and 24 hr, respectively. The number of apoptotic cells were determined between 4 hr and 24 hr using double TUNEL/Hoechst staining. At least 200 cells were evaluated from an individual well. […] was quantified at 200 X magnification by counting four fields derived from triplicate wells.
Staining with APO-BRDU kit was performed according to manufacturer's instructions (Phoenix Flow Systems).

caspase 3 = test: Western blot of activated caspase-3 in AD BEC lysates during capillary morphogenesis; assay type: cell-based, human; settings: zVAD-fmk 50 μM, 24 hr
Procedure: Cell lysates were prepared from subconfluent BEC cultures, BEC at different stages of capillary morphogenesis or BEC exposed to SIPS (see below H2O2 model of SIPS). Antibodies for Western blot analysis included caspase 3, rabbit anti-human polyclonal, 1:100 (0.5 mg/ml, BD PharMingen); p53, mouse anti-human monoclonal, 1:200 (0.1 mg/ml, Oncogene); p16, mouse anti-human monoclonal, 1:250 (0.5 mg/ml, BD ParMingen); p21, mouse anti-human, 1:200 (0.4 mg/ml, Oncogene); Rb (Santa Cruz), p27 (Santa Cruz), fibronectin (Santa Cruz), PAI-1 (Santa Cruz) or phosphorylated p38 MAPK; gax, rabbit polyclonal against C-terminal region of the rat gax protein (amino acids SDHSSEHAHL), 1:500 (7 mg/ml, provided by Dr Kenneth Walsh); and β-actin, goat anti-human polyclonal, 1:2,500 (0.2 mg/ml, Santa Cruz Biotechnology). The secondary antibody was HRP-conjugated and peroxidase activity was detected with enhanced chemiluminescence detection kit (ECL, Pierce). The relative abundance of the primary antigen was determined by scanning densitometry using β-actin as an internal control.

AD BEC [2] = test: Brain capillary morphogenesis in 3-D collagen matrices (VEGF/bFGF) mediated by AD BEC; assay type: cell-based, human; settings: zVAD-fmk 50 μM, 24 hr, VEGF and bFGF 40 ng/ml
Procedure: as §1
(§2) ZVAD-fmk (50 μM, Sigma), p38 MAPK antagonists including SB SB202190 (SB, 10 μM), and plasma-derived activated protein C (APC, prepared by Dr. J. H. Griffin's laboratory, 5-100 nM) were used.

AMC BEC = test: Tube formation in 2-D collagen matrigels, age-matched control BEC; assay type: cell-based, human; settings: 10 μM
Procedure: In 3D collagen gels (as described in FIG. 1), BEC that reached greater than 90% replicative senescence (RS) or were exposed to H2O2 (SIPS) formed an insignificant number of tubes (FIGS. 11A-11B, bar=50 μm). Total tube length—control BEC (arbitrarily taken as 100%) were compared to RS and SIPS BEC (FIG. 11C). The effect of SB202190 (SB, 10 μM for 1 hr) on SIPS-induced aberrant angiogenesis. Mean±s.e., n=9 assays per group from three different cases/group. In 2D collagen matrigels (growth factors per BD Biosciences, Bedford, Mass.), SB202190 (SB, 10 μM) increased the number of tubes in early passage AD BEC (FIGS. 11D-11E, bar=50 μm). SB202190 (SB, 10 μM) increases total tube length in both AMC and AD BEC (FIG. 11F). Mean±s.e., n=6-9 assays per group from two AMC and three AD cases.
In the 2-D system, collagen matrigels of matrix composition containing a supplement of growth factors were used according to manufacturer's instructions (BD Biosciences, Bedford, Mass.). In the 2-D matrix system, 2×10^4 cells/well were plated.
as §2

AD BEC [3] = test: Tube formation in 2-D collagen matrigels, AD BEC; assay type: cell-based, human; settings: 10 μM
Procedure: AD or age-matched control (AMC) BEC (2×10^4 cells/well) were plated in 2-D collagen matrigels (growth factors per BD Biosciences, Bedford, Mass.) and treated with 100 nM APC or vehicle (−APC). Total tube length was determined at 24 hr (FIG. 6A). Mean±s.e., n=30 to 40 assays per group from four AD and three AMC cases. AD or AMC BEC were treated with 100 nM APC, 100 nM boiled (B) APC, 100 nM serine mutant (M) APC, or vehicle (−APC) for 24 hr. Total tube length was determined at 24 hr (FIG. 6B). Mean±s.e., n=10 assays per group from one AD and one AMC case. % TUNEL-positive BEC at 4 hr during AD-mediated or AMC-mediated capillary morphogenesis in the presence of 100 nM APC or vehicle (−APC) was calculated (FIG. 6C). Mean±s.e., n=20 assays per group from two AD and two AMC cases. % Caspase-3-positive BEC at 4 hr of brain capillary morphogenesis in AD or AMC treated with 100 nM APC or vehicle (−APC) was calculated (FIG. 6D). Mean±s.e., n=20 assays per group from two AD and two AMC cases. AD BEC (3×10^4) cells were assayed for migration in a modified Boyden chamber in the presence of vehicle (−APC), 100 nM APC, anti-APC C3 monoclonal antibody (200 μg/ml), or anti-APC+APC after 6 hr of incubation (FIG. 6E). Mean±s.e., n=6 assays per group from two AD cases. […]

SMILES: OO [H2O2]
- number of tubes formed by H2O2-treated (SIPS) BEC (SIPS BEC; compared to untreated normal control cells): form an insignificant number of tubes
- senescent phenotype (G1 arrest, flattened morphology, SA-β-gal) (BEC; 300 μM for 2 hr, within 48 hr): developed a senescent phenotype
- BEC apoptosis (BEC; concentrations higher than 300 μM, not shown): resulted in BEC apoptosis

SMILES: COC(=O)C[C@H](NC(=O)[C@H](C)NC(=O)[C@@H](NC(=O)OCc1ccccc1)C(C)C)C(=O)CF [zVAD-fmk] (Cbz-Val-Ala-Asp(OMe)-CH2F)
- apoptosis in AD BEC (AD BEC [1]; during AD BEC-mediated capillary morphogenesis): prevents apoptosis
- number of apoptotic AD BEC by TUNEL staining (AD BEC [1]; zVAD, data not shown): decreased
- levels of activated form of caspase-3 (caspase 3): preventing the formation of the active form of caspase 3; also recorded: reduced
- number of tubes (AD BEC [2]): restored
- total tube length (AD BEC [2]): restored
- number of tubes (AD BEC [2]; listed as zVAD): restoration
- total tube length (AD BEC [2]; listed as zVAD): restoration

SMILES: Oc1ccc(-c2nc(-c3ccncc3)c(-c3ccc(F)cc3)[nH]2)cc1 [SB202190]
- total tube length, AMC BEC (AMC BEC): increases
- augmentation of total tube length in the SIPS model (SIPS BEC; preincubation 10 μM for 1 hr, 3D collagen gels): ~5 fold
- number of tubes in early passage AD BEC (AD BEC [3]): completely restored; also recorded: increased
- total tube length, AD BEC (AD BEC [3]): increases
